In patent publication US5545547A, “Enzymes as agricultural chemical adjuvants” (priority 1992, dated 1996):

Columns and labels:
Format in all cases: in vivo
[1] = system: various plants; assay: Greenhouse multispecies herbicide screen, statements on all tested plants
Source text: (§1) Several plant species including weeds and crops are used in these experiments.
A number of herbicides from various chemical classes were compared in a multispecies screen for percent chlorosis, necrosis and vigor reduction both with and without application of the enzyme from Pseudomonas mendocina ATCC 53552 described earlier. The herbicides were applied to various plants at the manufacturers recommended doses and at 10% and 40% of the recommended dose. Two different enzyme concentrations were used: 0.5 mg/ml (HE) and 0.05 mg/ml (LE) and applied at the rate of 40 gallons/acre. All spraying solutions were at pH 10 and contained 100 mm sodium phosphate each. […] All the experiments were carried out in a greenhouse.

[2] = system: Soybeans; assay: Greenhouse multispecies herbicide screen with/without P. mendocina enzyme; conditions: two weeks after treatment
Source text: as §1
(§2) A number of herbicides from various chemical classes were compared in a multispecies screen for percent chlorosis, necrosis and vigor reduction both with and without application of the enzyme from Pseudomonas mendocina ATCC 53552 described earlier. The herbicides were applied to various plants at the manufacturers recommended doses and at 10% and 40% of the recommended dose. Two different enzyme concentrations were used: 0.5 mg/ml (HE) and 0.05 mg/ml (LE) and applied at the rate of 40 gallons/acre. All spraying solutions were at pH 10 and contained 100 mm sodium phosphate each. Ratings were done at 6 and 12 days after the treatment. All the experiments were carried out in a greenhouse.
(§3) Chlorosis--figures represent percent of plants showing chlorosis.
(§4) Necrosis--figures represent percent of plants showing necrosis.
(§5) Vigor--figures represent percent of plants showing decreased vigor.
(§6) Phytotoxicity--figures represent the average percent of chlorosis, necrosis, and vigor for a given sample.
(§7) The method of Example 1 was used except that the enzyme was applied 2 hours prior to administering the agricultural chemical with the following results. Ratings were done two weeks after treatment

[3] = system: Turnip; assay: as above; conditions: for CHL (chlorosis) / NEC (necrosis) / PHY (phytotoxicity) / VIG (vigor) / % PHY (phytotoxicity): two weeks after treatment
Source text: as §1, §2, §3, §4, §5, §6, §7

[4] = Example 8: BASAGRAN 10% dose, High Enzyme applied 2 hours prior
[5] = Example 8: BASAGRAN 10% dose, Low Enzyme applied 2 hours prior
[6] = Example 8: BASAGRAN 10% dose, No Enzyme

CC(C)N1C(=O)c2ccccc2NS1(=O)=O [BASAGRAN, 3-(1-methylethyl)-1H-,2,1,3-benzothiadiazin-4(3H)-one 2,2-dioxide]
Plants killed ([1]; BASAGRAN applied at 40% of the recommended dosage, two weeks after treatment): completely killed
CHL (chlorosis) ([2]; BASAGRAN 10% dose, High Enzyme): 18%
NEC (necrosis) ([2]; BASAGRAN 10% dose, High Enzyme): 38%
PHY (phytotoxicity) ([2]; BASAGRAN 10% dose, High Enzyme): 43%
VIG (vigor) ([2]; BASAGRAN 10% dose, High Enzyme): 73%
CHL (chlorosis) ([2]; BASAGRAN 10% dose, Low Enzyme): 18%
NEC (necrosis) ([2]; BASAGRAN 10% dose, Low Enzyme): 43%
PHY (phytotoxicity) ([2]; BASAGRAN 10% dose, Low Enzyme): 37%
VIG (vigor) ([2]; BASAGRAN 10% dose, Low Enzyme): 50%
CHL (chlorosis) ([2]; BASAGRAN 10% dose, No Enzyme): 5%
NEC (necrosis) ([2]; BASAGRAN 10% dose, No Enzyme): 5%
PHY (phytotoxicity) ([2]; BASAGRAN 10% dose, No Enzyme): 8%
VIG (vigor) ([2]; BASAGRAN 10% dose, No Enzyme): 13%
% PHY (phytotoxicity) [2, 4]: 2%
CHL (chlorosis) [2, 4]: 0%
NEC (necrosis) [2, 4]: 5%
VIG (vigor) [2, 4]: 0%
% PHY (phytotoxicity) [2, 5]: 48%
CHL (chlorosis) [2, 5]: 48%
NEC (necrosis) [2, 5]: 48%
VIG (vigor) [2, 5]: 48%
% PHY (phytotoxicity) [2, 6]: 25%
CHL (chlorosis) [2, 6]: 25%
NEC (necrosis) [2, 6]: 25%
VIG (vigor) [2, 6]: 25%
CHL (chlorosis) ([3]; BASAGRAN 10% dose, High Enzyme): 38%
NEC (necrosis) ([3]; BASAGRAN 10% dose, High Enzyme): 50%
PHY (phytotoxicity) ([3]; BASAGRAN 10% dose, High Enzyme): 50%
VIG (vigor) ([3]; BASAGRAN 10% dose, High Enzyme): 63%
CHL (chlorosis) ([3]; BASAGRAN 10% dose, Low Enzyme): 38%
NEC (necrosis) ([3]; BASAGRAN 10% dose, Low Enzyme): 63%
PHY (phytotoxicity) ([3]; BASAGRAN 10% dose, Low Enzyme): 59%
VIG (vigor) ([3]; BASAGRAN 10% dose, Low Enzyme): 75%
CHL (chlorosis) ([3]; BASAGRAN 10% dose, No Enzyme): 25%
NEC (necrosis) ([3]; BASAGRAN 10% dose, No Enzyme): 25%
PHY (phytotoxicity) ([3]; BASAGRAN 10% dose, No Enzyme): 29%
VIG (vigor) ([3]; BASAGRAN 10% dose, No Enzyme): 38%
% PHY (phytotoxicity) [3, 4]: 41%
CHL (chlorosis) [3, 4]: 30%
NEC (necrosis) [3, 4]: 50%
VIG (vigor) [3, 4]: 43%
% PHY (phytotoxicity) [3, 5]: 78%
CHL (chlorosis) [3, 5]: 63%
NEC (necrosis) [3, 5]: 85%
VIG (vigor) [3, 5]: 85%
% PHY (phytotoxicity) [3, 6]: 48%
CHL (chlorosis) [3, 6]: 25%
NEC (necrosis) [3, 6]: 63%
VIG (vigor) [3, 6]: 55%

CN(C)C(=O)Nc1ccc(Cl)c(Cl)c1 [KARMEX, 3-(3,4-dichlorophenyl)-1,1-dimethylurea]
Phytotoxicity ([1]; KARMEX under the test conditions): low
CHL (chlorosis) ([2]; KARMEX 10% dose, High Enzyme): 0%
NEC (necrosis) ([2]; KARMEX 10% dose, High Enzyme): 0%
PHY (phytotoxicity) ([2]; KARMEX 10% dose, High Enzyme): 0%
VIG (vigor) ([2]; KARMEX 10% dose, High Enzyme): 0%
CHL (chlorosis) ([2]; KARMEX 10% dose, Low Enzyme): 0%
NEC (necrosis) ([2]; KARMEX 10% dose, Low Enzyme): 0%
PHY (phytotoxicity) ([2]; KARMEX 10% dose, Low Enzyme): 0%
VIG (vigor) ([2]; KARMEX 10% dose, Low Enzyme): 0%
CHL (chlorosis) ([2]; KARMEX 10% dose, No Enzyme): 0%
NEC (necrosis) ([2]; KARMEX 10% dose, No Enzyme): 0%
PHY (phytotoxicity) ([2]; KARMEX 10% dose, No Enzyme): 0%
VIG (vigor) ([2]; KARMEX 10% dose, No Enzyme): 0%
CHL (chlorosis) ([2]; KARMEX 40% dose, High Enzyme): 0%
NEC (necrosis) ([2]; KARMEX 40% dose, High Enzyme): 13%
PHY (phytotoxicity) ([2]; KARMEX 40% dose, High Enzyme): 8%
VIG (vigor) ([2]; KARMEX 40% dose, High Enzyme): 10%
CHL (chlorosis) ([2]; KARMEX 40% dose, Low Enzyme): 0%
NEC (necrosis) ([2]; KARMEX 40% dose, Low Enzyme): 15%
PHY (phytotoxicity) ([2]; KARMEX 40% dose, Low Enzyme): 6%
VIG (vigor) ([2]; KARMEX 40% dose, Low Enzyme): 5%
CHL (chlorosis) ([2]; KARMEX 40% dose, No Enzyme): 0%
NEC (necrosis) ([2]; KARMEX 40% dose, No Enzyme): 10%
PHY (phytotoxicity) ([2]; KARMEX 40% dose, No Enzyme): 3%
VIG (vigor) ([2]; KARMEX 40% dose, No Enzyme): 0%
CHL (chlorosis) ([3]; KARMEX 10% dose, High Enzyme): 18%
NEC (necrosis) ([3]; KARMEX 10% dose, High Enzyme): 15%
PHY (phytotoxicity) ([3]; KARMEX 10% dose, High Enzyme): 11%
VIG (vigor) ([3]; KARMEX 10% dose, High Enzyme): 0%
CHL (chlorosis) ([3]; KARMEX 10% dose, Low Enzyme): 18%
NEC (necrosis) ([3]; KARMEX 10% dose, Low Enzyme): 15%
PHY (phytotoxicity) ([3]; KARMEX 10% dose, Low Enzyme): 11%
VIG (vigor) ([3]; KARMEX 10% dose, Low Enzyme): 5%
CHL (chlorosis) ([3]; KARMEX 10% dose, No Enzyme): 28%
NEC (necrosis) ([3]; KARMEX 10% dose, No Enzyme): 10%
PHY (phytotoxicity) ([3]; KARMEX 10% dose, No Enzyme): 13%
VIG (vigor) ([3]; KARMEX 10% dose, No Enzyme): 0%
CHL (chlorosis) ([3]; KARMEX 40% dose, High Enzyme): 35%
NEC (necrosis) ([3]; KARMEX 40% dose, High Enzyme): 25%
PHY (phytotoxicity) ([3]; KARMEX 40% dose, High Enzyme): 36%
VIG (vigor) ([3]; KARMEX 40% dose, High Enzyme): 50%
CHL (chlorosis) ([3]; KARMEX 40% dose, Low Enzyme): 30%
NEC (necrosis) ([3]; KARMEX 40% dose, Low Enzyme): 50%
PHY (phytotoxicity) ([3]; KARMEX 40% dose, Low Enzyme): 41%
VIG (vigor) ([3]; KARMEX 40% dose, Low Enzyme): 43%
CHL (chlorosis) ([3]; KARMEX 40% dose, No Enzyme): 25%
NEC (necrosis) ([3]; KARMEX 40% dose, No Enzyme): 38%
PHY (phytotoxicity) ([3]; KARMEX 40% dose, No Enzyme): 33%
VIG (vigor) ([3]; KARMEX 40% dose, No Enzyme): 37%
Phytotoxicity with enzyme ([3]; KARMEX at 40% of the recommended dosage, with enzyme, sprayed on turnips): increased phytotoxicity
